Experimental data from publication PMC5889090 (Journal of medicinal chemistry, 2017).
Like-named read-outs stand apart in the source and are kept apart here.

Experiments:
[1] = tested on: zebrafish neuromast hair cells; assay: Zebrafish neuromast hair cell protection assay; details: for protective activity (in words) / EC50: 200 μM neomycin; for eudismic ratio (ER): HC50 of the less active versus the more active enantiomer
Aqueous solubility = assay type: physicochemical
Sprague-Dawley rats = assay: Rat ABR assay, kanamycin-induced hearing loss; details: kanamycin 500 mg/kg/day s.c. 14 days + compound 25 mg/kg/day i.p.
[2] = Preliminary i.v. toxicity and plasma half-life in rats; assay type: in vivo, rat
[3] = Early / in vitro ADME profiling
Air oxidation stability = assay type: physicochemical; details: oxidation to inactive, highly fluorescent byproduct
E. coli ATCC25922 = assay: Interference with neomycin MIC/MBC; assay type: cell-based
[4] = In vitro toxicity against HepG2 cell line; details: human
CYP = CYP stability / inhibition
hERG ion channel = hERG ion channel (Homo sapiens, UniProt Q12809); assay: cell-based
[5] = tested on: five strains of P. aeruginosa; assay: Interference with aminoglycoside MIC; assay type: cell-based
M. tuberculosis = assay: Interference with amikacin MIC; assay type: cell-based
[6] = read-out: HC50, Tables 7, 8 and text, 50% hair cell protection

Chain of hERG ion channel (Q12809 whole entry): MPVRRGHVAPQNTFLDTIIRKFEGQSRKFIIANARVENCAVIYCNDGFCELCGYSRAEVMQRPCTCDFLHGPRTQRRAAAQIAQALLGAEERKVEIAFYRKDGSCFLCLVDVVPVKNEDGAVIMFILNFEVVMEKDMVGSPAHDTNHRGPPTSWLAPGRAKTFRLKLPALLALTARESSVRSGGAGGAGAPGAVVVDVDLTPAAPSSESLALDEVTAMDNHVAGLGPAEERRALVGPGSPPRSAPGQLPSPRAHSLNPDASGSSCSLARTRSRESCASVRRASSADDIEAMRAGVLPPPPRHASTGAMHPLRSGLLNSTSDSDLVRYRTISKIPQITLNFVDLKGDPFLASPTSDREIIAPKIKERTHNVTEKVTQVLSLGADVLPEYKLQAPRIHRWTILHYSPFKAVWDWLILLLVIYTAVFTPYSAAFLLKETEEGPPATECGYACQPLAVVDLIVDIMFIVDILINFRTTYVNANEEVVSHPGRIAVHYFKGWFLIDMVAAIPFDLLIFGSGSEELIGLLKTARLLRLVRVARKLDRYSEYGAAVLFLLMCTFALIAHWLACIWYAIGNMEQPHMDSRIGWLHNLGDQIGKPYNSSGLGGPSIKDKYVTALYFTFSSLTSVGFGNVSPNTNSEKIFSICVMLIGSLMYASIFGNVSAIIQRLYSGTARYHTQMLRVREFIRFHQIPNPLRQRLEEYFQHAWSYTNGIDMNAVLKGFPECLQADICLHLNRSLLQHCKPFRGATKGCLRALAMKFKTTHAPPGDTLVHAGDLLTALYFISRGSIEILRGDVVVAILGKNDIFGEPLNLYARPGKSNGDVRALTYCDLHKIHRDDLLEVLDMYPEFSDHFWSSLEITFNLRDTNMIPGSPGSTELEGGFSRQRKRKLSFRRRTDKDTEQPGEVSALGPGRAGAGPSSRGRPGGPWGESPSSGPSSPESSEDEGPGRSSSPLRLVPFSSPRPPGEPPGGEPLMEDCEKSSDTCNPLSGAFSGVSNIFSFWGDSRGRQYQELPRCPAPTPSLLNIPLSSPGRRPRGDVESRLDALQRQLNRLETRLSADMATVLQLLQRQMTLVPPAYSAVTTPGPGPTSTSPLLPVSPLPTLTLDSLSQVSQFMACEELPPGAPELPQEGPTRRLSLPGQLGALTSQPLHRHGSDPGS

Compound: (−)-2-[3-(4-Chlorophenyl)ureido]-9-methyl-5,6,7,8-tetrahydro-4H-5,8-epiminocyclohepta[b]thiophene-3-carboxamide [compound 89]
- protective activity (in words) [1]: significantly reduced activity
- EC50 [1, 6]: 2250 nM

Compound: Cl.NC(=O)c1c(NC(=O)Nc2ccc(Cl)cc2)sc2c1[C@H]1CC[C@@H](C2)N1 [compound 98]
- protective activity (in words) [1]: significantly reduced activity

Compound: CCN1CCc2c(sc(NC(=O)CN3CCCCC3)c2C(N)=O)C1 [compound 27]
- protective activity (in words) [1]: no protective activity

Compound: CCN1CCc2c(sc(NC(=O)Nc3cscc3C(=O)OC)c2C(N)=O)C1 [compound 15]
- protective activity (in words) [1]: inactive

Compound: CCN1CCc2c(sc(NC(=O)Nc3ccc(Cl)cc3)c2C(N)=O)C1.Cl [compound 1, 2-[3-(4-Chlorophenyl)ureido]-6-ethyl-4,5,6,7-tetrahydrothieno[2,3-c]pyridine-3-carboxamide]
- aqueous solubility (in words) (Aqueous solubility): adequate
- protection from kanamycin-induced hearing loss (ABR) (Sprague-Dawley rats; 8 and 16 kHz): completely prevented
- protection from kanamycin-induced hearing loss (ABR) (Sprague-Dawley rats; 32 kHz): mostly resolved
- half-life ([2]; rat, plasma, iv, 25 mg/kg): 1.7 h
- toxicity i.v. ([2]; rats, i.v., doses up to 25 mg/kg): non-toxic
- clearance profile (in words) ([3]; early ADME characterization): acceptable
- membrane permeability (in words) ([3]; early ADME characterization): adequate
- plasma protein binding (in words) ([3]; early ADME characterization): reasonable
- air oxidation (Air oxidation stability): gradually undergo partial air oxidation
- interference with neomycin minimal bactericidal concentration (MBC) (E. coli ATCC25922): no interference
- interference with neomycin minimal inhibitory concentration (MIC) (E. coli ATCC25922): no interference
- IC50 [4]: > 300000 nM
- CYP stability or inhibition (CYP): no issues

Compound: CCN1CCc2c(sc(NC(=O)Nc3ccc(Cl)cc3)c2C(=O)N2CCOCC2)C1.Cl [compound 20]
- protective activity (in words) [1]: greatly reduces the activity

Compound: CC(C)(C)OC(=O)N1CCc2c(sc(NC(=O)Nc3ccc(Cl)cc3)c2C(N)=O)C1 [compound 59]
- protective activity (in words) [1]: completely suppressed

Compound: CCN1CCc2c(sc(NC(=O)Nc3ccccc3)c2C(N)=O)C1.Cl [compound 14]
- protective activity (in words) [1]: inactive

Compound: CC(C)(C)OC(=O)CN1CCc2c(sc(NC(=O)Nc3ccc(Cl)cc3)c2C(N)=O)C1 [compound 60]
- protective activity (in words) [1]: completely suppressed

Compound: CCN1CCc2c(sc(NC(=O)Nc3ccc(Cl)cc3)c2C(=O)OC)C1.Cl [compound 17]
- protective activity (in words) [1]: greatly reduces the activity

Compound: CCN1CCc2c(sc(NC(=O)C3(c4ccc(Cl)cc4)CC3)c2C(N)=O)C1.Cl [compound 33]
- protective activity (in words) [1]: no protective activity

Compound: CCN1CCc2c(sc(NC(=O)Nc3ccc(Cl)cc3)c2C(=O)NC)C1.Cl [compound 18]
- protective activity (in words) [1]: greatly reduces the activity

Compound: Cl.NC(=O)c1c(NC(=O)Nc2ccc(Cl)cc2)sc2c1C[C@H]1CC[C@@H]2N1 [compound 95]
- protective activity (in words) [1]: significantly reduced activity
- eudismic ratio (ER) [1]: 14.7

Compound: CCN1CCc2c(sc(NC(=O)NCc3cccc(Cl)c3)c2C(N)=O)C1.Cl [compound 11]
- protective activity (in words) [1]: inactive

Compound: CCN1CCc2c(sc(NC(=O)Nc3ccc(Cl)cc3)c2C(=O)c2nc(C)no2)C1.Cl [compound 21]
- protective activity (in words) [1]: inactive

Compound: CCN1CCc2c(sc(NC=O)c2C(N)=O)C1.Cl [compound 29]
- protective activity (in words) [1]: no protective activity

Compound: C[N+]1(CC2CCCCC2)CCc2c(sc(NC(=O)Nc3ccc(Cl)cc3)c2C(N)=O)C1 (stereo not drawn) [compound 76]
- IC50 (hERG ion channel): > 30000 nM

Compound: CCN1CCc2c(ccc(NC(=O)Nc3ccc(Cl)cc3)c2C(N)=O)C1 [compound 38]
- protective activity (in words) [1]: no potency

Compound: (+)-2-[3-(4-Chlorophenyl)ureido]-9-methyl-5,6,7,8-tetrahydro-4H-5,8-epiminocyclohepta[b]thiophene-3-carboxamide [compound 90]
- interference in MIC for tobramycin, amikacin, kanamycin and neomycin [5]: no interference
- interference in amikacin MIC (M. tuberculosis): no interference
- EC50 [1, 6]: 120 nM
- interference with neomycin minimal inhibitory concentration (MIC) (E. coli ATCC25922): no interference

Compound: CCN1CCc2c(sc(NC(=O)C3(C(=O)Nc4ccc(Cl)cc4)CC3)c2C(N)=O)C1 [compound 31]
- protective activity (in words) [1]: lack of potency

Compound: CCN1CCc2c(sc(NC(=O)c3ccccc3)c2C(N)=O)C1.Cl [compound 32]
- protective activity (in words) [1]: no protective activity

Compound: 2-amino-4,5,6,7-tetrahydrothieno[2,3-c]pyridine-3-carboxamide [compound 28]
- protective activity (in words) [1]: inactive

Compound: CCN1CCc2c(sc(NC(=O)Nc3ccc(Cl)cc3)c2C(=O)c2nnco2)C1.Cl [compound 22]
- protective activity (in words) [1]: inactive

Compound: NC(=O)c1c(NC(=O)Nc2ccc(Cl)cc2)sc2c1[C@@H]1CC[C@H](C2)N1 [compound 99]
- EC50 ([1]; Danio rerio, read-out: HC50, text): 33 nM

Compound: NC(=O)c1c(NC(=O)Nc2ccc(Cl)cc2)sc2c1CCN(CC1CC1)C2 [compound 53]
- IC50 (hERG ion channel): 2670 nM

Compound: NC(=O)c1c(NC(=O)Nc2ccc(Cl)cc2)sc2c1CCN(CC1CCC1)C2 [compound 54]
- IC50 (hERG ion channel): 730 nM

Compound: CC1(C)Cc2c(sc(NC(=O)Nc3ccc(Cl)cc3)c2C(N)=O)C(C)(C)N1.Cl [compound 87]
- metabolic stability ([3]; in vitro ADME profiling): excellent
- air oxidation (Air oxidation stability): resistant to the oxidation pathway
- IC50 [4]: > 300000 nM
- CYP stability or inhibition (CYP): no issues

Compound: CC(C)(C)OC(=O)CCCN1CCc2c(sc(NC(=O)Nc3ccc(Cl)cc3)c2C(N)=O)C1 [compound 62]
- IC50 (hERG ion channel): 3840 nM

Compound: CCN1CCc2c(sc(NC(=O)[C@@H]3CCCN3)c2C(N)=O)C1 [compound 30]
- protective activity (in words) [1]: no protective activity

Compound: CCN1CCc2c(sc(NC(=O)NCCN3CCOCC3)c2C(N)=O)C1 [compound 13]
- protective activity (in words) [1]: inactive

Compound: CN1[C@@H]2CC[C@H]1c1sc(NC(=O)Nc3ccc(Cl)cc3)c(C(N)=O)c1C2.Cl [compound 92]
- protective activity (in words) [1]: significantly reduced activity
- eudismic ratio (ER) [1]: 26.7

Compound: (+/−)-2-[3-(4-Chlorophenyl)ureido]-9-methyl-5,6,7,8-tetrahydro-4H-5,8-epiminocyclohepta[b]thiophene-3-carboxamide [compound 88]
- EC50 [1, 6]: 360 nM

Compound: CCN1CCc2c(sc(NC(=O)NCC3CCCO3)c2C(N)=O)C1 (stereo not drawn) [compound 12]
- protective activity (in words) [1]: inactive

Compound: CCN1CCc2c(sc(NC(=O)Nc3ccc(Cl)cc3)c2C(=O)O)C1.O=C(O)C(F)(F)F [compound 16]
- protective activity (in words) [1]: greatly reduces the activity

Compound: CCN1CCc2c(sc(NC(=O)Nc3ccc(Cl)cc3)c2C#N)C1.Cl [compound 19]
- protective activity (in words) [1]: greatly reduces the activity

Compound: CC(C)C[N+]1(C)CCc2c(sc(NC(=O)Nc3ccc(Cl)cc3)c2C(N)=O)C1 (stereo not drawn) [compound 71]
- IC50 (hERG ion channel): 9750 nM
